Data set [1] addresses cathepsin D isolated from the human liver (Homo sapiens (Human), UniProt P07339). The data set is described as follows: In-vitro fluorescence assay for identification of cathepsin D inhibitors. The format is biochemical. The note with it: cathepsin D 1.4 nM, pH 5.5; read-out: CatD assay IC50-. In a few lines: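 Human liver cathepsin D (1.4 nM final) preincubated 10 min at room temperature with serially diluted compounds in 100 mM sodium acetate pH 5.5, 1.25% DMSO, 0.25% CHAPS. Reaction started with 5 μM MCA/Dnp-quenched peptide substrate. Fluorescence increase (ex 340/em 450 nm) over 60 min at room temperature compared with compound-free wells.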

The nature of data set [2]: Stability in bovine synovial fluid. The data set is classed as in vitro ADME. The note with it: 1 μM, 48 h at 37° C. How it is done:
In order to check the stability of individual compounds, a pool of four different bovine synovial fluids is mixed. To this end, about 1 ml per SF is used. The mixture is prepared directly in a 5 ml glass vessel. The SFs are mixed thoroughly, but carefully. No air bubbles or foam should form. To this end, a vortex unit is used at the lowest speed. The compounds to be tested are tested in an initial concentration (unless required otherwise) of 1 μM. After addition of the substance, the batch is again mixed thoroughly and carefully. For visual monitoring, all SF batches are photographed, and the pictures are filed in the eLabBio file for the corresponding experiment. […] The batches are incubated in the incubator for 48 h at 37° C. and 7.5% CO2.
The sampling is carried out after the pre-agreed times (unless required otherwise, see below). 200 μl of the SF are removed from the mixture per time and transferred directly into a 0.5 ml “low-binding” Eppendorf vessel. “Low-binding” Eppendorf vessels are used in order to minimise interaction of the substances with the plastic of the vessels. 200 μl of acetonitrile have already been introduced into the Eppendorf vessel, so that a 1+1 mixture of the SF forms thereafter. This simplifies the subsequent analysis, but precipitation of protein may occur immediately after addition of the SF. This should be noted on the protocol. The 0 h sample is taken immediately after addition of the substance. This corresponds to the 100% value in the stability calculation. Ideally, the concentration employed should be retrieved here. The samples can be frozen at −20° C. • 0 h • 6 h • 24 h • 48 h
The negative control used is SF without substance. The positive control used is SF with 1 μM of substance. This corresponds to the 0 h value and thus 100% stability.
The concentrations measured (ng/ml) are plotted against the time in a graph (GraphPad Prism®). The percentage stability of the substance is determined here. The 100% value used is the initial value in the SF at time 0 h. The data are stored in eLabBio under the respective experiment number and reported in the MSR database (as percent stability after the corresponding incubation times).

Data set [3] deals with recombinant human renin (Homo sapiens (Human), UniProt P00797). The data set is described as follows: In-vitro fluorescence assay for identification of renin-inhibitory activity. As to conditions: recombinant human renin 10 nM, pH 7.2; read-out: Renin selectivity IC50. The format is biochemical. In a few lines:
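Recombinant human renin (10 nM) pre-incubated 15 min at RT with serially diluted compound in 50 mM Mops pH 7.2, 1.5% DMSO, 0.1% Igepal, 0.5% BSA; Edans/Dabcyl FRET peptide (5 µM final) added, 60 min at 37 °C; cleavage read as fluorescence increase (ex 340/em 495 nm) against no-compound wells.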

pIC50: −log10 of the molar value. Where only a bound is given, the exact number is not on record here.

The record followed here is patent publication US9345742B2, “Aminostatin derivatives for the treatment of arthrosis” (MERCK PATENT GMBH, priority 2011, dated 2016).

Sequence of cathepsin D isolated from the human liver (P07339 65-161): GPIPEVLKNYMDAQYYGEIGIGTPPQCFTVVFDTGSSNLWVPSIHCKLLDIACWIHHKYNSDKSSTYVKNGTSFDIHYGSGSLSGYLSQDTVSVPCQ
Sequence of cathepsin D isolated from the human liver (P07339 169-412): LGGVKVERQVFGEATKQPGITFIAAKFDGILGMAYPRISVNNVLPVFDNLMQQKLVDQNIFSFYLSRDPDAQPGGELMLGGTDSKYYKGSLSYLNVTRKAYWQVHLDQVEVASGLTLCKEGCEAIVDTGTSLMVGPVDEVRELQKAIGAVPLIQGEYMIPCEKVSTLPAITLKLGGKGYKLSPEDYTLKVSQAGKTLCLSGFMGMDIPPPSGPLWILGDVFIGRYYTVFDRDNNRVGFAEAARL
Sequence of recombinant human renin (P00797 67-406): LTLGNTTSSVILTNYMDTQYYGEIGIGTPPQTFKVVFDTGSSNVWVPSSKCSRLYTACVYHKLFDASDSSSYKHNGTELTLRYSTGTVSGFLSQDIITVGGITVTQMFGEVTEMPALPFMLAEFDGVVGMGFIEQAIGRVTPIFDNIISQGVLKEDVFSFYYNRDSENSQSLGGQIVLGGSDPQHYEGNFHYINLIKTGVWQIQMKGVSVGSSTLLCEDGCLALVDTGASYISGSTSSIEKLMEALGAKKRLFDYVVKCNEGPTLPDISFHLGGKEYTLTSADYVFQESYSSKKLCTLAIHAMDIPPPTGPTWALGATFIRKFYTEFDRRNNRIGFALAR

As a reminder, the pIC50 is −log10 of the IC50, conventionally taken in molar units. Take `CCC(CC)NC(=O)[C@@H](NC(=O)C[C@H](N)[C@H](Cc1ccccc1)NC(=O)[C@@H](NC(=O)[C@H](CC(C)C)NC(=O)CC(C)C)C(C)C)[C@@H](C)CC` [Compound 39, N-[(1S,2S)-1-(1-Ethylpropylcarbamoyl)-2-methylbutyl]-(S)-3-(S)-amino-4-{(S)-3-methyl-2-[(S)-4-methyl-2-(3-methylbutyryl-amino)pentanoylamino]butyrylamino}-5-phenylpentanamide]: the pIC50 was 8.00 in data set [1] and less than 4.52 in data set [3]. The “Stability in synovial fluid” value in data set [2] is on record as “stable”.
